Source: US20230324370A1, “A DNA-Based Voltmeter for Organelles” (The University of Chicago, priority 2020, published 2023)
Each block holds one compound with its values, some of them ahead of it.

Key:
[1] = tested on: lysosomes of COS-7 cells; assay: Time lapse imaging of lysosomal membrane potential upon ATP addition; type: cell-based, Monkey; conditions: COS-7, 100 µM ATP
Description: Time lapse Imaging: […] Image acquisition was briefly paused at indicated time for addition of chemicals (ML-SA1, Baf-A1, ATP or DMSO) to cells. To minimize bleaching, time-lapse imaging was done at single focal plane. Z-drift compensator module from IX83 was applied to minimize out of focus drift during time lapse imaging. The extracellular ATP induced cytosolic calcium increase was imaged by labeling COS-7 cells with cell permeable calcium sensitive dye Fluo4-AM ester. Time-lapse imaging of Fluo-4 labeled COS-7 cells were acquired using a 480/20 band pass excitation filter, 520/40 band pass emission filter and 89016 dichroic, at 1 s interval for 20 mins.

[2] = tested on: cytosolic Ca^2+ in COS-7 cells; assay: Cytosolic calcium imaging with Fluo-4 AM upon ATP addition; type: cell-based, Monkey; conditions: COS-7, 100 µM ATP
[3] = tested on: early endosomes; assay: Time-lapse imaging of early endosome membrane potential upon TRPML1 activation; type: cell-based; conditions: ML-SA1
[4] = tested on: lysosomes in HEK 293T cells; assay: In situ lysosomal membrane potential measurement with Voltair^IM, with and without pharmacological treatment; type: cell-based, Human; conditions: for ΔVLys: HEK 293T
[5] = tested on: trans Golgi network in HEK 293 cells expressing scFv-furin; assay: Organellar membrane potential measurement, trans Golgi network; type: cell-based, Human; conditions: V-ATPase inhibition (bafilomycin A1 500 nM per FIG. 4)
[6] = tested on: recycling endosomes in HEK 293T cells; assay: Organellar membrane potential measurement, recycling endosomes; type: cell-based, Human; conditions: 500 nM bafilomycin A1
[7] = tested on: endogenous scavenger receptor; assay: Competition assay of DNA nanodevice uptake in cell types expressing endogenous scavenger receptor; type: cell-based; conditions: THP-1, BHK-21, HDF, RAW 264.7, T-47D, COS-7
[8] = biological target: T1, human macrophage scavenger receptor (hMSR1) (Homo sapiens, UniProt P21757); assay: Competition assay of DNA device uptake with maleylated BSA; type: cell-based
T1 construct: expressed in transfected cells; host or cells: HEK 293T
T1 sequence (P21757 1-451): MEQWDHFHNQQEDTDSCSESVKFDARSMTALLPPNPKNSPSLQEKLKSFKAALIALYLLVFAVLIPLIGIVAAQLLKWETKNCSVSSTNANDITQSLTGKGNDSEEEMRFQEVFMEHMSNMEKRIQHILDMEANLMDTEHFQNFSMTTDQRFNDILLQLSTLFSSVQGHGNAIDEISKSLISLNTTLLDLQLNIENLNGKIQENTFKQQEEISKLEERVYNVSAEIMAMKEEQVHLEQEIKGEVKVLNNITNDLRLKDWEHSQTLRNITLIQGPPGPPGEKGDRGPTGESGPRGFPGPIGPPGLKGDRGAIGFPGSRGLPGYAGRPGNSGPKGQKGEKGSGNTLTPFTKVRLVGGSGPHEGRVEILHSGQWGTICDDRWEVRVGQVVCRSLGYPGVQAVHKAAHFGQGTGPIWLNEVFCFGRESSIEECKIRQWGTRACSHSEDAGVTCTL
Method: Competition assay: HEK 293T cells transfected with hMSR1-CFP were washed with 1X PBS, pH 7.4 prior to labeling with the DNA device. Cells were incubated with 20 µM maleylated BSA (mBSA) for 15 min, followed by a 20 min pulse of 500 nM DNA device and 20 µM mBSA to allow internalization by receptor mediated endocytosis. Control cells were washed and pulsed for 20 mins in 500 nM DNA device without mBSA. Cells were then washed three times with 1× PBS and chased for 30 mins in complete DMEM media. Complete media was replaced with Opti-MEM solution (Thermofisher) and imaged by widefield microscopy for quantification and confocal microscopy for representative images. Whole cell intensities in the Atto647N channel were quantified for cells expressing hMSR1-CFP observed in CFP channel. The mean intensity from three different experiments were normalized against the no mBSA control, for n~50 cells.

[9] = in the presence of Torin-1 and trans-ned-19 1 µM

Compound: Nc1ncnc2c1ncn2[C@@H]1O[C@H](COP(=O)(O)OP(=O)(O)OP(=O)(O)O)[C@@H](O)[C@H]1O [ATP]
- acute hyperpolarization of the lysosomal membrane [1]: +75 mV
- duration of lysosomal hyperpolarization [1]: ~ 100 seconds
- time from maximal cytosolic Ca^2+ elevation to lysosomal hyperpolarization [1]: ~ 80 seconds
- time to maximum cytosolic Ca^2+ level after addition [2]: ~ 5 seconds

Compound: CC1CC(C)(C)N(C(=O)CN2C(=O)c3ccccc3C2=O)c2ccccc21 (stereo not shown) [ML-SA1]
- membrane potential in early endosomes (VEE) upon treatment [3]: stayed constant
- ΔVLys ([4]; ML-SA1 20 µM, TRPML1 activator): 90 mV

Compound: O=c1[nH]c2cc(C(F)(F)F)ccc2n1-c1cc(C(F)(F)F)ccc1O [NS1619]
- ΔVLys ([4]; ML-SA1 as well as BK channel agonist NS1619): 50 mV

Compound: CCC(=O)N1CCN(c2ccc(-n3c(=O)ccc4cnc5ccc(-c6cnc7ccccc7c6)cc5c43)cc2C(F)(F)F)CC1 [Torin-1]
- reduction of VLys from the resting VLys ([4]; Torin-1 1 µM, mTORC1 inhibition): ~60 mV

Compound: CO/C1=C\C(C)=C\[C@@H](C)[C@@H](O)[C@@H](C)C/C(C)=C/C=C/[C@H](OC)[C@@H]([C@@H](C)[C@@H](O)[C@H](C)[C@@]2(O)C[C@@H](O)[C@H](C)[C@@H](C(C)C)O2)OC1=O [bafilomycin A1]
- membrane potential remaining across the TGN after V-ATPase inhibition [5]: +75 mV
- change of VRE upon V-ATPase inhibition [6]: no change
- reduction of VLys from the resting membrane potential ([4]; bafilomycin A1 500 nM, V-ATPase inhibition): ~ 100 mV

Compound: COc1ccc([C@H]2N[C@H](C(=O)O)Cc3c2[nH]c2ccccc32)cc1CN1CCN(c2ccccc2F)CC1 [trans-ned-19]
- VLys [4, 9]: +80 mV
- ΔVLys due to TPC2 channel inhibition [4, 9]: 35 mV

- effect on endocytosis of Voltair^PM ([8]; CFP-hMSR1 transfected HEK 293T, 30eq. mBSA, 500 nM Voltair^PM, 30 mins): blocks endocytosis
- effect on uptake of Voltair^IM ([8]; HEK 293T cells expressing hMSR1-CFP): efficiently competed out
Compound: maleylated BSA: a strong ligand for scavenger receptors
- effect on DNA nanodevice uptake [7]: decreases uptake
